ChEMBL document CHEMBL3994629, “Synthesis and biological evaluation of a water-soluble phosphate prodrug salt and structural analogues of KGP94, a lead inhibitor of cathepsin L” (Bioorg Med Chem Lett, 2017)
pIC50, pKi: −log10 of the molar value. Active and inactive are the calls of the source. No cut-off for these calls is given here.

Assays:
Procathepsin L [1] = molecular target: T1, Procathepsin L (Homo sapiens, UniProt P07711); experiment: Inhibition of human liver cathepsin-L at 10 uM using Z-FR-AMC as substrate preincubated for 5 mins followed by substrate addition measured at 15 sec interval for 5 mins in presence of 0.01% Brij35 by fluorometric method relative to control
Target sequence in this assay (P07711 114-333 limits assumed): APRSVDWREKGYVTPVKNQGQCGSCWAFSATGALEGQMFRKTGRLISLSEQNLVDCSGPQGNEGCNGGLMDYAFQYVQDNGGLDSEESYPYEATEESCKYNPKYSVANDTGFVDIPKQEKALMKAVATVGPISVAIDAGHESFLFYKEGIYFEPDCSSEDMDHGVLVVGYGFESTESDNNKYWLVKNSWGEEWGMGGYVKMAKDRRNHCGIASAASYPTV

Procathepsin L [2] = molecular target: T1, Procathepsin L; experiment: Time-dependent inhibition of human liver cathepsin-L up to 20 uM using Z-FR-AMC as substrate preincubated with enzyme followed by substrate addition by fluorometric method
Target sequence in this assay (P07711 114-333 limits assumed): as above

Cathepsin B [3] = molecular target: T2, Cathepsin B (Homo sapiens, UniProt P07858); experiment: Inhibition of human liver cathepsin-B at 10 uM using Z-RR-AMC as substrate preincubated for 5 mins followed by substrate addition measured for 5 mins by fluorometric method relative to control
Procathepsin L [4] = molecular target: T1, Procathepsin L; experiment: Time-dependent inhibition of human liver cathepsin-L assessed as association constant up to 20 uM using 5 uM Z-FR-AMC as substrate preincubated with enzyme followed by substrate addition by fluorometric method
Target sequence in this assay (P07711 114-333 limits assumed): as above

Procathepsin L [5] = molecular target: T1, Procathepsin L; experiment: Time-dependent inhibition of human liver cathepsin-L assessed as dissociation constant up to 20 uM using 10 uM Z-FR-AMC as substrate preincubated with enzyme followed by substrate addition by fluorometric method
Target sequence in this assay (P07711 114-333 limits assumed): as above

Procathepsin L [6] = molecular target: T1, Procathepsin L; experiment: Time-dependent inhibition of human liver cathepsin-L assessed as association constant up to 20 uM using 10 uM Z-FR-AMC as substrate preincubated with enzyme followed by substrate addition by fluorometric method
Target sequence in this assay (P07711 114-333 limits assumed): as above

Procathepsin L [7] = molecular target: T1, Procathepsin L; experiment: Covalent/reversible inhibition of human liver cathepsin-L using Z-FR-AMC as substrate preincubated for 5 mins followed by substrate addition measured at 15 sec interval for 5 mins by Morrison's equation analysis; settings: read-out: Ki(app)
Target sequence in this assay (P07711 whole entry): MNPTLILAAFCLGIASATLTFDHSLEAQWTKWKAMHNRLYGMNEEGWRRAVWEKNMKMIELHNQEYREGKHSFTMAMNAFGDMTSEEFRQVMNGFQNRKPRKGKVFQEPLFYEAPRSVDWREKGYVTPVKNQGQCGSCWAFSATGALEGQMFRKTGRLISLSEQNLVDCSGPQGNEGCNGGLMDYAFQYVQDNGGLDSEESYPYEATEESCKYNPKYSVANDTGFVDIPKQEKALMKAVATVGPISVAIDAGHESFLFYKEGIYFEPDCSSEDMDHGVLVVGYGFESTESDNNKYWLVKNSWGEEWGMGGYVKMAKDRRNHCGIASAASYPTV

Procathepsin L [8] = molecular target: T1, Procathepsin L; experiment: Inhibition of human liver cathepsin-L at 10 uM using Z-FR-AMC as substrate preincubated for 5 mins followed by substrate addition measured at 15 sec interval for 5 mins in presence of 0.1% Tween or 0.1% CHAPS by fluorometric method relative to control
Target sequence in this assay (P07711 114-333 limits assumed): as the sequence (P07711 114-333 limits assumed) above

Procathepsin L [9] = molecular target: T1, Procathepsin L; experiment: Inhibition of human liver cathepsin-L using Z-FR-AMC as substrate preincubated for 5 mins followed by substrate addition measured at 15 sec interval for 5 mins by fluorometric method
Target sequence in this assay (P07711 whole entry): as the sequence (P07711 whole entry) above

MDA-MB-231 = experiment: Anti-migratory activity against human MDA-MB-231 cells assessed as delay in wound closure at 15 uM after 42 hrs by scratch assay; assay type: functional, cell-based
Cathepsin B [10] = molecular target: T2, Cathepsin B; experiment: Inhibition of human liver cathepsin-B using Z-RR-AMC as substrate preincubated for 5 mins followed by substrate addition measured for 5 mins by fluorometric method
[11] = Retention time in pH 8.6 glycine buffer after 48 hrs at 37 degC by HPLC method
[12] = molecular target: Matrix metalloproteinase-9 (Homo sapiens) (UniProt P14780); experiment: Inhibition of recombinant human MMP9 at 1 uM using NFF2 as substrate by fluorometric method relative to control
[13] = Aqueous solubility of the compound in water at 2.02 mg by reversed phase column chromatography; assay type: physicochemical
[14] = molecular target: Matrix metalloproteinase-9 (Homo sapiens) (UniProt P14780); experiment: Inhibition of recombinant human MMP9 at 10 uM using NFF2 as substrate by fluorometric method relative to control
Caspase-3 (Homo sapiens) = molecular target: T3, Caspase-3 (Homo sapiens) (UniProt P42574); experiment: Inhibition of recombinant human caspase-3 at 1 uM using Ac-DMQD-AMC as substrate measured at 15 sec interval over 30 mins by fluorogenic assay relative to control
T3 sequence (whole entry): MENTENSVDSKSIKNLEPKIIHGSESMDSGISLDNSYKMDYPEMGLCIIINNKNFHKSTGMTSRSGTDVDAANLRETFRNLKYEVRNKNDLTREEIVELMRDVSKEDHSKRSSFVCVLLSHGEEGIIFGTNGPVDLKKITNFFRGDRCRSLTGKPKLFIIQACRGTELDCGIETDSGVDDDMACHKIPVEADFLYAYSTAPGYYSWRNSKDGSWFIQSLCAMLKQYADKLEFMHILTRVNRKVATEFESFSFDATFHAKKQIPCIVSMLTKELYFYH

[15] = Aqueous solubility of the compound in water at 4 g by reversed phase column chromatography; assay type: physicochemical
[16] = Prodrug activation in water assessed as assessed as KGP94 formation at 20 uM after 1 week at 4 degC by HPLC method
[17] = Solubility in water; assay type: physicochemical; settings: buffer
[18] = Prodrug activation in pH 8.6 glycine buffer assessed as KGP94 formation after 48 hrs at 37 degC in absence of alkaline phosphatase by HPLC method
[19] = Stability in pH 8.6 glycine buffer assessed as compound hydrolysis after 48 hrs at 37 degC in absence of alkaline phosphatase by HPLC method
[20] = Cytotoxicity against HUVEC assessed as growth inhibition after 48 hrs by SRB assay; assay type: cell-based; settings: human, HUVEC cells
[21] = Stability in water assessed as compound hydrolysis at 20 uM after 1 week at 4 degC by HPLC method; assay type: physicochemical; settings: buffer, 168 h

Matrix metalloproteinase-9 (Homo sapiens), sequence (P14780 whole entry): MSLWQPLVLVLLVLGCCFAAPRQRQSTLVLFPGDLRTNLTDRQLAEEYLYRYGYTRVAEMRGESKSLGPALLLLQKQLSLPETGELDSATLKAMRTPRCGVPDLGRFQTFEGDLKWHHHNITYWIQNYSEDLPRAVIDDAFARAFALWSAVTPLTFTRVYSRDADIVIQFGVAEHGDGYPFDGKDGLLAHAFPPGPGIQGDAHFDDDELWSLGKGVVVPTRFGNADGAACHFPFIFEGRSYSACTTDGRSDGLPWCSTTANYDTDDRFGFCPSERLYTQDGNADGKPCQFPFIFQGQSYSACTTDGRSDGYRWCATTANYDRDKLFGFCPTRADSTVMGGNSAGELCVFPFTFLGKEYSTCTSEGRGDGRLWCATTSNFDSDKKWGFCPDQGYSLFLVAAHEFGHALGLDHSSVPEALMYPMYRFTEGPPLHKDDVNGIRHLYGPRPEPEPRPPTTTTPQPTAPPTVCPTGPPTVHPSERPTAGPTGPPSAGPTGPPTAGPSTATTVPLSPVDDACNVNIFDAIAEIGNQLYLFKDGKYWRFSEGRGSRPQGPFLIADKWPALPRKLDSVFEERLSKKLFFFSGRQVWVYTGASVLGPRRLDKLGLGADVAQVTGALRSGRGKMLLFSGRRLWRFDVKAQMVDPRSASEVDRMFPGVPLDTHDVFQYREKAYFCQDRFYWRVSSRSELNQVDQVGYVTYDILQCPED

Row | Structure (SMILES) | inhibition (Procathepsin L [1]) [%] | inhibition (Cathepsin B [3]) [%] | inhibition (Procathepsin L [8]) | pIC50 (Procathepsin L [9]) | Activity (MDA-MB-231) | pIC50 (Cathepsin B [10]) | other results
1 | NC(=S)N/N=C(\c1cccc(O)c1)c1cc(Br)cc(Br)c1 | 94 | > 50 | Active | 6.69 | Active | < 5.00 | TDI (Procathepsin L [2]): Active; K (Procathepsin L [4]): 2 ×10³ /M/s; K (Procathepsin L [5]): 1 ×10⁻³ /s; K (Procathepsin L [6]): 1.5 ×10³ /M/s; pKi (Procathepsin L [7]): 8.08
2 | NC(=S)N/N=C(\c1cc(O)cc(O)c1)c1cc(Br)cc(Br)c1 | 44 | > 50 |  | < 5.00 |  | < 5.00 | 
3 | COc1cc(OC)cc(/C(=N\NC(N)=S)c2cccc(Br)c2)c1 | 46 | > 50 |  | < 5.00 |  | < 5.00 | 
4 | NC(=S)N/N=C(\c1cc(O)cc(O)c1)c1cccc(Br)c1 | 23 | > 50 |  | ≤ 5.00 |  | < 5.00 | 
5 | NC(=S)N/N=C(\c1cccc(O)c1)c1cccc(Br)c1 | 88 to 91 |  | Active |  | Active |  | Retention time [11]: 5.4 min; inhibition [12]: 3%; solubility [13]: < 0.67 mg/mL; inhibition [14]: 15%; pKi (Procathepsin L [7]): 8.43; inhibition (Caspase-3 (Homo sapiens)): 4.5%
6 | NC(=S)NN=C(c1cc(O)cc(Br)c1)c1cc(O)cc(Br)c1 | 40 | > 50 |  | < 5.00 |  | < 5.00 | 
7 | COc1cc(OC)cc(/C(=N\NC(N)=S)c2cc(Br)cc(Br)c2)c1 | 52 | > 50 |  | ≤ 5.00 |  | < 5.00 | 
8 | NC(=S)N/N=C(/c1cccc(Br)c1)c1cccc(OP(=O)([O-])[O-])c1.[Na+].[Na+] | 18 | > 50 | < 50% | < 5.00 | Active |  | Retention time [11]: 1.6 min; solubility [15]: > 400 mg/mL; Drug metabolism [16]: Metabolite not detected; solubility [17]: Soluble; Drug metabolism [18]: Metabolite detected; Drug degradation [19]: 5.6%; GI50 at 48 h [20]: 20.2 µM; Stability [21]: Stable
